± gives the uncertainty stated by the source.
Experiment: xn = mol fraction of the nth substance listed
Settings: 101.33 kPa

CNC(C)=O + COCCO
viscosity [mPa·s]
Settings	308.15 K	313.15 K	318.15 K
x1 = 0.0301	1.362 ± 0.011	1.242 ± 0.01	1.136 ± 0.009
x1 = 0.0501	1.393 ± 0.011	1.27 ± 0.01	1.16 ± 0.009
x1 = 0.0752	1.431 ± 0.011	1.304 ± 0.01	1.191 ± 0.009
x1 = 0.1036	1.476 ± 0.011	1.343 ± 0.011	1.227 ± 0.01
x1 = 0.1301	1.515 ± 0.012	1.378 ± 0.011	1.259 ± 0.01
x1 = 0.17	1.574 ± 0.012	1.432 ± 0.011	1.307 ± 0.01
x1 = 0.2032	1.624 ± 0.013	1.477 ± 0.011	1.348 ± 0.011
x1 = 0.2501	1.696 ± 0.013	1.541 ± 0.012	1.404 ± 0.011
x1 = 0.302	1.776 ± 0.014	1.613 ± 0.012	1.468 ± 0.011
x1 = 0.4032	1.94 ± 0.015	1.758 ± 0.014	1.596 ± 0.012
x1 = 0.5037	2.114 ± 0.016	1.91 ± 0.015	1.73 ± 0.013
x1 = 0.6033	2.308 ± 0.018	2.074 ± 0.016	1.876 ± 0.014
x1 = 0.65	2.409 ± 0.018	2.16 ± 0.016	1.95 ± 0.015
x1 = 0.7021	2.526 ± 0.019	2.259 ± 0.017	2.038 ± 0.016
x1 = 0.7503	2.641 ± 0.02	2.357 ± 0.018	2.124 ± 0.016
x1 = 0.8032	2.775 ± 0.021	2.477 ± 0.019	2.227 ± 0.017
x1 = 0.8524	2.908 ± 0.022	2.594 ± 0.02	2.328 ± 0.018
x1 = 0.9035	3.061 ± 0.023	2.724 ± 0.021	2.439 ± 0.018
x1 = 0.9301	3.145 ± 0.024	2.795 ± 0.021	2.5 ± 0.019
x1 = 0.9702	3.277 ± 0.025	2.913 ± 0.022	2.597 ± 0.02

— the CheMixHub viscosity set
